The nature of series [1]: In vitro penetration rate through human skin, Franz cells. It is filed as in vitro ADME. The method, then:
Penetration rates of HPCs through human skin were measured in vitro by Franz cells. A Franz cell has two chambers, a top sample chamber and a bottom receptor chamber.
Test compounds were diethylaminoethyl N-acetyl-3-(3,4-diacetyloxy-phenyl-L-alanine ester.HCl salt (A), diethylaminopropyl N-acetyl-D-3,5,3′,5′-tetraiodothyronine.HCl salt(B), 1-piperidineethyl 2-[4-(4-chlorobenzoyl)phenoxy]-2-methyl-propinate. HCl salt(C), 3-piperidinemethyl 5-(2,5-dimethylphenoxy)-2,2-dimethylpentanoate.HCl salt(D), diethylaminoethyl (S)-3-(benzoylaminomethyl)-5-methylhexanoate.HCl salt(E), N-acetyl-3-(3,4-diacetyloxy-phenyl-L-alanine(F) sodium salt, N-acetyl-D-3,5,3′,5′-tetraiodothyronine sodium salt(G), 2-[4-(4-chlorobenzoyl)phenoxy]-2-methyl-propinic acid sodium salt(H), 5-(2,5-dimethylphenoxy)-2,2-dimethylpentanoic acid sodium salt(I), and (S)-3-(benzoylaminomethyl)-5-methylhexanoic acid sodium salt(J).
10% solution of the test compound in water was used. The amount of a HPC or its parent drug penetrating a skin was determined by high-performance liquid chromatography method. The results were shown in FIG. 8 and apparent flux values of the HPCs and their corresponding parent drugs were summarized in Table 2.

In the next series the test system is normal SD rats (SLAC/SD). In words: Blood glucose in normal SD rats treated with HPCs of NSAIAs. It counts as in vivo. The note with it: 30 mg/kg transdermally once per day, no fasting. The protocol:
(§1) A HPC in the present disclosure lowered blood glucose levels in rat models (SLAC/GK, type 2 diabetes, n=7). 30 mg/kg of 8% diethylaminoethyl acetylsalicylate.HCl salt (P-1, in 25% ethanol); 4-acetamidophenyl salicylyldimethylaminobutyrate.HCl (P-6, in 25% ethanol), diethylaminoethyl 5-(2,4-difluorophenyl)acetylsalicylate.5-(2,4-difluorophenyl)acetylsalicylic acid salt (P-8, in 25% ethanol), diethylaminoethyl salicylsalicylate.HCl salt (P-9, in 25% ethanol), diethylaminoethyl salicylate.AcOH(P-10, in 25% ethanol), diethylaminoethyl 5-acetamido-acetylsalicylate.HCl(P-58, in 25% ethanol), diethylaminoethyl acetylsalicylsalicylate. HCl salt (P-59, in 25% ethanol), diethylaminoethyl acetylsalicylsalicylsalicylate. HCl salt (P-60, in 25% ethanol) were administered transdermally to the backs (6 cm^2, fur was shaved) of GK rats (SLAC/GK, 14-16 weeks old) and normal SD rats (SLAC/SD, 14-16 weeks old) once per day (at 8 am) for 6 weeks.
(§2) The blood glucose levels were measured once every 3 days at 4:30 pm (no fasting) from the third week to the sixth week as shown in Table 10a and 10b. […] Moreover, the blood glucose levels of the rats stayed at normal level (6-9 mmol/L, no fasting) after the treatment was stopped for 40 days.

In series [2] the test system is GK rats (SLAC/GK, type 2 diabetes). In words: Anti-diabetes (type II) activity of HPCs of NSAIAs in GK rats. It counts as in vivo. Conditions: 30 mg/kg transdermally once per day, no fasting. The method, then: as §1, §2
Series [3] concerns SLAC:NOD-IDDM, type 1 diabetes. In words: Anti-diabetes (type I) activity of HPCs of NSAIAs. It is filed as in vivo, mice. Conditions: for blood glucose, Baseline: equal to 20 mg/kg of NSAIAs transdermally twice per day for 7 weeks; for blood glucose, Average: fourth week to seventh week, no fasting, equal to 20 mg/kg of NSAIAs transdermally twice per day. From the text:
10% aqueous solution of diethylaminoethyl acetylsalicylate.acetylsalicylic acid salt (P-1, […]); 4-acetamidophenyl salicylyldimethylaminobutyrate. HCl (P-6), diethylaminoethyl 5-(2,4-difluorophenyl)acetylsalicylate.5-(2,4-difluorophenyl)acetylsalicylic acid salt (P-8), diethylaminoethyl salicylsalicylate.AcOH(P-9), diethylaminoethyl 5-acetamido-acetylsalicylate. HCl (P-58), diethylaminoethyl 2-(ρ-isobutylphenyl) propionate.citric acid (P-59), diethylaminoethyl acetylsalicylsalicylate. acetylsalicylsalicylsalicylic acid salt (P-60) (equal to of 20 mg/kg of NSAIAs) were administered transdermally to the shaved back (about 1.5 cm^2) of mice twice per day (at 8 am and 5 pm) for 7 weeks.
The blood glucose levels were measured once every 3 days at 4:30 pm (no fasting) from the fourth week to the seventh week as shown in Table 11.

The next series deals with SLAC/DB/DB obese mice. In words: Blood glucose and blood lipid levels in DB/DB mice. Conditions: 30 mg/kg transdermally once per day. It is filed as in vivo. The protocol: HPCs in the present disclosure lowered blood glucose levels and blood lipid levels in mice models (SLAC/DB/DB, obese mice, n=7). 30 mg/kg of 8% diethylaminoethyl acetylsalicylate.HCl salt (P-1, in 25% ethanol); 4-acetamidophenyl salicylyldimethylaminobutyrate.HCl (P-6, in 25% ethanol), diethylaminoethyl 5-(2,4-difluorophenyl)acetylsalicylate.5-(2,4-difluorophenyl)acetylsalicylic acid salt (P-8, in 25% ethanol), diethylaminoethyl salicylsalicylate.HCl salt (P-9, in 25% ethanol), diethylaminoethyl salicylate.AcOH(P-10, in 25% ethanol), diethylaminoethyl 5-acetamido-acetylsalicylate.HCl(P-58, in 25% ethanol), diethylaminoethyl acetylsalicylsalicylate.HCl salt (P-59, in 25% ethanol), diethylaminoethyl acetylsalicylsalicylsalicylate.HCl salt (P-60, in 25% ethanol) were administered transdermally to the backs (4 cm^2,fur was shaved) of DB/DB mice(SLAC/DB/DB, 10-12 weeks old) once per day (at 8 am) for 5 weeks. The blood glucose levels were measured once per week and blood lipid levels were measured once every other week.

Series [4] concerns lesions similar to psoriasis generated by Malassezia. In words: Anti-psoriasis activity, Malassezia-induced lesions. It counts as in vivo, Chinese white rabbits. The note with it: HPC 5% aq. applied to the lesion areas twice per day. The protocol:
Heavy suspensions of Malassezia [Rosenberg, E. W., et al., Mycopathologia, 72, 147-154 (1980)] were applied to the shaved skin on the backs of Chinese white rabbits (n=4×6) twice (at […]) per day for 2 weeks to generate lesions similar to psoriasis. HPCs (5%, aq.) were applied to the same areas 3 hours (10 am and 6 pm) after the application of Malassezia (7 am and 3 pm). […] HCl, diethylaminoethyl 1,8-diethyl-1,3,4,9-tetrahydropyrano-[3,4-b]indole-1-acetate.HCl, diethylaminoethyl 2-amino-3-(4-bromo-benzoyl)benzeneacetate.HCl, diethylaminoethyl 3-chloro-4-(2-propenyloxy)benzeneacetate. HCl, diethylaminoethyl 1-(4-chlorobenzoyl-5-methoxy-2-methyl-1H-indole-3-acetoxyacetate. HCl, diethylaminoethyl 4-(4-chlorophenyl)-2-phenyl-5-thiazoleacetate.HCl, and diethylaminoethyl 3-(4-chlorophenyl)-1-phenyl-1H-pyrazole-4-acetate.HCl

Setting [5] is: 10% solution in water, human skin 360-400 μm, Franz cells.

Data on 18 compounds can be found in patent publication US11541029B2, “High penetration compositions and their applications” (Techfields Pharma Co., Ltd., priority 2008, dated 2023).

Read-outs that look alike come from different tables or passages of the source.

In the case of `CC(C)(Oc1ccc(C(=O)c2ccc(Cl)cc2)cc1)C(=O)OCCN1CCCCC1.Cl` [1-piperidineethyl 2-[4-(4-chlorobenzoyl)phenoxy]-2-methyl-propinate. HCl salt], the “apparent flux (in vitro penetration rate)” value (“apparent flux” below) in series [1] turned out to be 590 μg/cm^2/h.

In the case of `CC(C)(Oc1ccc(C(=O)c2ccc(Cl)cc2)cc1)C(=O)[O-].[Na+]` [2-[4-(4-chlorobenzoyl)phenoxy]-2-methyl-propinic acid sodium salt, reference compound], the “apparent flux” value in series [1] is listed as 1 μg/cm^2/h.

Regarding `Cc1ccc(C)c(OCCCC(C)(C)C(=O)OCC2CCCNC2)c1.Cl` (stereo not shown) [3-piperidinemethyl 5-(2,5-dimethylphenoxy)-2,2-dimethylpentanoate.HCl salt], the “apparent flux” value in series [1] was determined as 400 μg/cm^2/h.

Turning to `Cc1ccc(C)c(OCCCC(C)(C)C(=O)[O-])c1.[Na+]` [5-(2,5-dimethylphenoxy)-2,2-dimethylpentanoic acid sodium salt, reference compound], the “apparent flux” value in series [1] (human, 10 % solution in water) came to 1 μg/cm^2/h.

As for `CC(C)C[C@H](CNC(=O)c1ccccc1)CC(=O)[O-].[Na+]` [(S)-3-(benzoylaminomethyl)-5-methylhexanoic acid sodium salt, reference compound], in series [1] (setting [5]), the “apparent flux” value came to 1 μg/cm^2/h.

With `CC(=O)N[C@@H](Cc1ccc(OC(C)=O)c(OC(C)=O)c1)C(=O)[O-].[Na+]` [N-acetyl-3-(3,4-diacetyloxy-phenyl-L-alaninesodium salt, reference compound], the “apparent flux” value in series [1] is reported as 1 μg/cm^2/h.

Take `CC(=O)N[C@H](Cc1cc(I)c(Oc2cc(I)c(O)c(I)c2)c(I)c1)C(=O)[O-].[Na+]` [N-acetyl-D-3,5,3′,5′-tetraiodothyronine sodium salt, reference compound]: the “apparent flux” value in series [1] (human, 10 % solution in water) is listed as 1 μg/cm^2/h.

With `CCN(CC)CCOC(=O)c1cc(NC(C)=O)ccc1OC(C)=O.Cl` [P-58, diethylaminoethyl 5-acetamido-acetylsalicylate.HCl], in the series with normal SD rats (SLAC/SD), the “blood glucose, Average (Week 2-5)” value turned out to be 5.8 ± 1.1 mmol/L and the “blood glucose, Day 1” value was determined as 5.9 ± 1.2 mmol/L. Also, in series [2], the “blood glucose, Average (Week 2-5)” value was 9.4 ± 3.0 mmol/L and the “blood glucose, Day 1” value came out at 17.1 ± 2.8 mmol/L. Further, in series [3], the “blood glucose, Baseline” value was 17.9 ± 3.2 mmol/L and the “blood glucose, Average” value worked out at 8.1 ± 1.9 mmol/L. Also, in the series on SLAC/DB/DB obese mice, the “Cholesterol (total), Day 1” value was 7.1 ± 0.3 mmol/L; the “Cholesterol (total), Week 5” value was 5.1 ± 0.6 mmol/L; the “Triglycerides, Day 1” value is given as 4.9 ± 0.4 mmol/L; the “Triglycerides, Week 5” value came to 4.3 ± 0.5 mmol/L. Also, in the series on SLAC/DB/DB obese mice, the “blood glucose, Day 1” value is on record as 15.6 ± 2.9 mmol/L and the “blood glucose, Week 5” value is recorded as 9.3 ± 2.1 mmol/L.

Turning to `CCN(CC)CCOC(=O)c1ccccc1OC(=O)c1ccccc1OC(=O)c1ccccc1OC(C)=O.Cl` [P-60, diethylaminoethyl acetylsalicylsalicylsalicylate. HCl salt], in the series with normal SD rats (SLAC/SD), the “blood glucose, Average (Week 2-5)” value is 5.7 ± 1.1 mmol/L and the “blood glucose, Day 1” value was 5.6 ± 1.3 mmol/L. Moreover, in series [2], the “blood glucose, Average (Week 2-5)” value stood at 9.3 ± 2.9 mmol/L and the “blood glucose, Day 1” value came to 15.9 ± 2.8 mmol/L. Also, in series [3], the “blood glucose, Baseline” value amounted to 17.5 ± 3.3 mmol/L and the “blood glucose, Average” value is given as 8.8 ± 1.9 mmol/L. Besides, in the series on SLAC/DB/DB obese mice, the “Cholesterol (total), Day 1” value turned out to be 7.0 ± 0.8 mmol/L; the “Cholesterol (total), Week 5” value amounted to 5.0 ± 0.4 mmol/L; the “Triglycerides, Day 1” value amounted to 4.3 ± 0.5 mmol/L; the “Triglycerides, Week 5” value is listed as 4.3 ± 0.5 mmol/L. In addition, in the series on SLAC/DB/DB obese mice, the “blood glucose, Day 1” value is 14.8 ± 2.7 mmol/L and the “blood glucose, Week 5” value came to 9.0 ± 2.1 mmol/L.

For the compound `CCc1cccc2c3c([nH]c12)C(CC)(CC(=O)OCCN(CC)CC)OCC3.Cl` (stereo not shown) [diethylaminoethyl 1,8-diethyl-1,3,4,9-tetrahydropyrano-[3,4-b]indole-1-acetate.HCl], in series [4], the “time until lesions healed after the application” value (from here on “time until lesions healed”) came out at 10 days.

As for `CCN(CC)CCOC(=O)COC(=O)Cc1c(C)n(C(=O)c2ccc(Cl)cc2)c2ccc(OC)cc12.Cl` [diethylaminoethyl 1-(4-chlorobenzoyl-5-methoxy-2-methyl-1H-indole-3-acetoxyacetate. HCl], the “time until lesions healed” value in series [4] amounted to 10 days.

For the compound `CCN(CC)CCOC(=O)Cc1cccc(C(=O)c2ccc(Br)cc2)c1N.Cl` [diethylaminoethyl 2-amino-3-(4-bromo-benzoyl)benzeneacetate.HCl], in series [4], the “time until lesions healed” value stood at 10 days.

On to `CCN(CC)CCOC(=O)Cc1cn(-c2ccccc2)nc1-c1ccc(Cl)cc1.Cl` [diethylaminoethyl 3-(4-chlorophenyl)-1-phenyl-1H-pyrazole-4-acetate.HCl], for which the “time until lesions healed” value in series [4] was determined as 10 days.

On to `C=CCOc1ccc(CC(=O)OCCN(CC)CC)cc1Cl.Cl` [diethylaminoethyl 3-chloro-4-(2-propenyloxy)benzeneacetate. HCl], for which the “time until lesions healed” value in series [4] was 10 days.

Turning to `CCN(CC)CCOC(=O)Cc1sc(-c2ccccc2)nc1-c1ccc(Cl)cc1.Cl` [diethylaminoethyl 4-(4-chlorophenyl)-2-phenyl-5-thiazoleacetate.HCl], the “time until lesions healed” value in series [4] is recorded as 10 days.

In the case of `CCN(CC)CCOC(=O)C[C@@H](CNC(=O)c1ccccc1)CC(C)C.Cl` [diethylaminoethyl (S)-3-(benzoylaminomethyl)-5-methylhexanoate.HCl salt], the “apparent flux” value in series [1] (setting [5]) came out at 650 μg/cm^2/h.

Turning to `CCN(CC)CCOC(=O)[C@H](Cc1ccc(OC(C)=O)c(OC(C)=O)c1)NC(C)=O.Cl` [diethylaminoethyl N-acetyl-3-(3,4-diacetyloxy-phenyl-L-alanine ester.HCl salt], in series [1], the “apparent flux” value is recorded as 550 μg/cm^2/h.

Take `CCN(CC)CCCOC(=O)[C@@H](Cc1cc(I)c(Oc2cc(I)c(O)c(I)c2)c(I)c1)NC(C)=O.Cl` [diethylaminopropyl N-acetyl-D-3,5,3′,5′-tetraiodothyronine.HCl salt]: the “apparent flux” value in series [1] came to 480 μg/cm^2/h.
